The experiment deals with T1, GST-MCU (recombinant) (Homo sapiens, UniProt Q8NE86).
T1 construct: recombinant GST fusion
T1 sequence (Q8NE86 51-351): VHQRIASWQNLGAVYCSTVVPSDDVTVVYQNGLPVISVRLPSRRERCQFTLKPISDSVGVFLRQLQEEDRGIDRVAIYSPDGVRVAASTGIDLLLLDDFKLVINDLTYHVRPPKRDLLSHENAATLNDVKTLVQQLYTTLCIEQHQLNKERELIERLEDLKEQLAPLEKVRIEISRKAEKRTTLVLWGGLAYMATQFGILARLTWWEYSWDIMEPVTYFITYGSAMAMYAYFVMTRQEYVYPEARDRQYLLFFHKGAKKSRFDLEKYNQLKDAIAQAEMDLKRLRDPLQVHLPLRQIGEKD
The experiment is described as follows: in vitro biotin pull-down, immunoblot. The format is binding. Particulars: biotin-labelled compound 2 µg, 4 °C; competed by free berberine. (In general: In western blotting, separated proteins are transferred to a membrane and probed.)

The values below come from paper PMC12061237, “Berberine is a Novel Mitochondrial Calcium Uniporter Inhibitor that Disrupts MCU‐EMRE Assembly” (Advanced Science, 2025).

On to `COc1ccc2cc3[n+](cc2c1OC(=O)CCCCCNC(=O)CCCC[C@@H]1SC[C@@H]2NC(=O)N[C@@H]21)CCc1cc2c(cc1-3)OCO2` [Biotin-Berberine], for which the “in vitro biotin pull-down, immunoblot” value is reported as “Biotin‐BBR directly binds to recombinant glutathione‐S‐transferase (GST)‐MCU”.
